Measurements: patent publication US20190290623A1, “USE OF TIOTROPIUM BROMIDE TO PREVENT PULMONARY OXYGEN TOXICITY” (priority 2018, published 2019)

Key:
[1] = test system: swine exposed to 1.5 ATA hyperbaric oxygen for 17.5 hr; assay: Experiment 1 shallow exposure simulation: pulmonary capacities; format: in vivo; conditions: 1.5 ATA O2 17.5 hr, percent change from baseline
Description: Experiment 1 is designed to evaluate the efficacy of tiotropium bromide administered pre-dive in reducing decrements in pulmonary function due to PO2T following a 17.5 hour, 1.5 ATA hyperbaric oxygen exposure. This dive profile was selected because it was of sufficient duration to elicit persistent pulmonary function decrement in humans.
The swine were anesthetized with propofol (20 cc, I.V. target, adjusted as needed to optimize sedation), intubated and ventilated. Anesthetized swine were shaved, then ECG and EEG electrodes were placed. Animals were then paralyzed with Atracurium Besylate (50 mg, IV) for accurate pulmonary function measurements of quasi-static and dynamic compliance.
Following baseline pulmonary function measurements, the swine were randomized to receive equivalent volumes of normal saline or tiotropium bromide (18 mcg) via nebulizer. The swine were then ventilated until muscle tone was regained. Sedation was discontinued and the swine were extubated, transported to the hyperbaric chamber and allowed to recover until able to independently stand. Once able to stand, animals had electrode leads attached and IV tubing connected to the ear vein catheter. The chamber hatch was then closed and the swine compressed to 1.5 ATA on air.
Next, the swine were switched to 100% oxygen breathing gas and remained at 1.5 ATA for 17.5 hr. At the end of the 17.5 hour 1.5 ATA oxygen exposure, swine surfaced at a rate of 1 ATA/minutes (ATA/min), were transferred to a Panepinto sling, sedated with diazepam (1.5-2.0 mg/kg, I.V) and reassessed via impulse Oscillometry. The swine were again anesthetized with propofol and intubated. When fully sedated, the swine were ventilated, paralyzed with Atracurium Besylate, and post-dive measurements of pulmonary function were recorded. During all phases of study the swine were continuously monitored for signs of seizure or distress.
Baseline and post-dive assessments of pulmonary compliance were conducted on each animal enrolled in the study. […] These values were expressed as percent change from baseline.

[2] = test system: swine exposed to 2.5 ATA hyperbaric oxygen for 5.5 hr; assay: Experiment 2: heart rate variability (SDNN); format: in vivo; conditions: 2.5 ATA O2 5.5 hr; mean+/−SEM; p=0.0331 vs saline
Description: The swine were prepared for ECG recording as described previously. Briefly, using an electric shaver, ECG areas were prepared bilaterally, posterior to the shoulder, lateral to the vertebrae, at approximately 4-7 cm above ribs 5-7 (bipolar derivation). Another area was prepared 2 cm lateral to the vertebrae on right side, between ribs 12-13. Newly exposed skin was rubbed with isopropyl alcohol. Disposable pre-wired (Grass Technologies/Astro-Med, Inc. Warwick, Mass.) or SF405 (KENDALL MEDI-TRACE™, Tyco Healthcare, Mansfield, Mass.) self-adhesive Ag/AgCl electrodes were placed on the proximal, symmetric sites and the ground electrode was placed at the distal site (between ribs 12-13). […]
Wideband AC amplifiers (Grass, Quincy, Mass.) were used for EEG and ECG recordings; a 0.5-35 Hz and 60 cycle notch filter setting was used. […] Heart rate variability (HRV) was calculated from pre-dive ECG epochs of at least 2 min durations using the Labchart ECG tool suite. […] Above the manually set trigger level the LabChart software looked for maximum values and measured the time interval between peaks (maximal amplitude of R-wave). […] The length of measured periods were: (1) 114.995 sec; peak-to-peak distance 0.750 t 0.0004 sec; 153 peaks; FFT 1.329 Hz=79.74 bpm; and (2) 326.52 sec; peak-to-peak distance 0.750±0.0003; 434 peaks; FFT 1.332 Hz=79.92 bpm. […]

C[N+]1(C)[C@@H]2C[C@@H](OC(=O)C(O)(c3cccs3)c3cccs3)C[C@H]1[C@@H]1O[C@@H]12 [Tiotropium, tiotropium bromide]
Vital Capacity, Saline vs Tiotropium ([1]; p=0.394): no significant differences | Expiratory Reserve Volume, Saline vs Tiotropium ([1]; p=0.445): no significant differences | Inspiratory capacity, Saline vs Tiotropium ([1]; p=0.879): no significant differences | Post-dive SDNN normalized to the pre-dive SDNN [2]: 103.5+/−15.87
